Laboratory results from paper PMC4094919, “Screening and hit evaluation of a chemical library against blood-stage Plasmodium falciparum” (Malaria Journal, 2014).
Entries after “also recorded” stand apart in the source; their conditions may differ. Like-named read-outs stand apart in the source and are kept apart here. Marks after values point to notes of the source that are not given here.

What was measured:
[1] = Chemical stability on standing at room temperature; type: physicochemical
[2] = test system: P. falciparum NF54 strain; test: P. falciparum NF54 growth assay, 3H-hypoxanthine incorporation (hit validation); type: cell-based, Plasmodium falciparum; conditions: for EC50: Plasmodium falciparum; for Comment (activity in words on retest): hit validation, NF54 confirmatory assay
Method: Synthesized compounds were tested in an alternative assay, in which ^3H-hypoxanthine incorporation was measured in the chloroquine-sensitive strain NF54 (Values were measured in duplicate, 12 points/EC50).
Cultivation of Plasmodium falciparum: Plasmodium falciparum strain NF54 was obtained from the Research and Reference Reagent Resource Center (MR4) (Manassas, VA, USA). The two strains were maintained in vitro by a modification of the method of Trager and Jensen. Cultures were maintained in A positive (A^+) human erythrocytes suspended at 5% hematocrit in complete medium. […] Parasite growth and morphology were observed daily using thin smears at 100X (oil immersion) magnification following staining with Giemsa stain.
Plasmodium falciparum growth assay: The protocol assesses the compound efficacy against the growth of P. falciparum in vitro.
All cultures used in the study are albumax II adopted. […]
Following the incubation period, the plates were harvested with a FilterMate cell harvester (Perkin Elmer) onto unifilter-96 GF/B plates, washed with distilled water to remove excess radiochemical and plates were kept for drying 37°C overnight or 60°C for 1 hr. Fifty µL of Microscint scintillation cocktail (Microscint-High Efficiency LSC-Cocktail; Perkin Elmer) added in the unifilter-96 GF/B plates and kept for 15-20 min. The plates were counted in a Top Count NXT microplate scintillation and luminescence counter (Perkin Elmer). The mean values for [^3H]-hypoxanthine incorporation in parasitized control and non-parasitized control erythrocytes were calculated.
Assay data were analysed using Graph pad prism ver.5 software. A variable sigmoid dose response curve is plotted keeping log concentrations at X-axis and % inhibition at Y-axis.

P. falciparum 3D7 strain = test: P. falciparum 3D7 growth inhibition, DAPI imaging (HTS screen); type: cell-based; conditions: Plasmodium falciparum
Method: The P. falciparum 3D7 strain was used for the primary screen.
For the screening of the chemical library, a validated high throughput screening (HTS) method was used as reported by Duffy and Avery. In brief, intra-erythrocyte P. falciparum 3D7 parasites incubated with the compounds for 72 hours were stained with 4′-6-diamidino-2-phenylindole (DAPI) and imaged using a high throughput confocal imaging system. To ascertain inhibition of parasite growth, images of fluorescent parasites were translated, using a mathematical algorithm, into a numerical output of classified spots (parasites) as determined by fluorescence size and intensity.
EC50 and CC50 values were calculated for compounds which presented an Emax plateau using GraphPad Prism.

[3] = NF54, heading bounds of Figure 8: not reconfirming / reconfirming / newly synthesized compounds, read-out: EC50 (bound in Figure 8)
[4] = P. falciparum NF54 strain, 3H-hypoxanthine incorporation, newly synthesized sample, read-out: EC50 (NF54)
[5] = negative logarithm of the molar EC50, NF54, read-out: pEC50 (NF54) (converted)
[6] = P. falciparum 3D7 strain, DAPI imaging, HTS screen, library sample, read-out: EC50 (3D7)
[7] = negative logarithm of the molar EC50, 3D7, read-out: pEC50 (3D7) (converted)
[8] = 3D7 / NF54, range over HTS (3D7) and retest after synthesis (NF54), read-out: EC50 range over the two assays

SMILES | Chemical stability [1] | EC50 [2, 3] [nM] | EC50 [2, 4] [nM] | EC50 [2, 5] [nM] | Comment (activity in words on retest) [2] | EC50 (P. falciparum 3D7 strain; [6]) [nM] | EC50 (P. falciparum 3D7 strain; [7]) [nM] | EC50 ([2]; P. falciparum NF54, after synthesis, read-out: EC50 (NF54)) [nM] | EC50 [2, 8] [nM] | EC50 ([2]; 3D7 / NF54, read-out: EC50 range over the two assays) [nM] | EC50 ([2]; NF54, read-out: EC50 (NF54)) [nM] | EC50 ([2]; NF54, read-out: EC50 (bound in Figure 8)) [nM] | EC50 ([2]; NF54, read-out: pEC50 (NF54) (converted)) [nM] | EC50 (P. falciparum 3D7 strain; 3D7, read-out: EC50 (3D7)) [nM] | EC50 (P. falciparum 3D7 strain; 3D7, read-out: pEC50 (3D7) (converted)) [nM]
Cc1c(CO)c2ccccc2n1Cc1ccccc1C#N [Compound 1, 2-((3-(hydroxymethyl)-2-methyl-1H-indol-1-yl)methyl)benzonitrile] | significantly degraded; also recorded: unstable | > 1000 | 4700 | 5010 | Weakly active/unstable | 602 | 631 | – | – | – | – | – | – | – | –
CC(=O)N1c2ccccc2C(c2ccccc2)C1C(=O)O (stereo not drawn) [Compound 4] | – | > 1000 | – | – | – | 172 | 158 | – | – | – | – | – | – | – | –
COc1ccc(NC(=O)c2cnn(-c3ccccc3)c2-c2ccccc2)c(OC)c1 [Compound 5, N-(2,4-dimethoxyphenyl)-1,5-diphenyl-1H-pyrazole-4-carboxamide] | – | > 1000 | 3900 | 3980 | Weakly active | 870 | 794 | ~4000 | – | – | – | – | – | – | –
CC(=O)N1CCN(Cc2coc(Cc3ccccc3)n2)CC1 [Compound 6, 1-(4-((2-benzyloxazol-4-yl)methyl)piperazin-1-yl)ethanone] | – | > 1000 | > 10000 | > 10000 | Inactive | < 10 | < 10 | – | – | – | – | – | – | – | –
O=C(Nc1cc(=O)[nH]c2nc(-c3ccccc3)nn12)C1CCCCC1 [Compound 7, N-(5-oxo-2-phenyl-4,5-dihydro-[1,2,4]triazolo[1,5-a]pyrimidin-7-yl)cyclohexanecarboxamide] | – | < 1000 | 450 | 501 | Validated hit, CHEMBL587310^f) | 648 | 631 | – | 450 to 648 | – | – | – | – | – | –
COc1ccc(-c2cnc3sc(NC4CCC(N)CC4)nn23)cn1 (stereo not drawn) [Compound 8, N1-(5-(6-methoxypyridin-3-yl)imidazo[2,1-b][1,3,4]thiadiazol-2-yl)cyclohexane-1,4-diamine] | – | – | – | – | – | – | – | – | – | 284 to 287 | 284 | < 1000 | 316 | 297 | 316
CCOc1ncccc1C(=O)Nc1cc(C(F)(F)F)ccc1Oc1cccc(OC)c1 [Compound 9, 2-ethoxy-N-(2-(3-methoxyphenoxy)-5-(trifluoromethyl)phenyl)nicotinamide] | – | < 1000 | 309 | 316 | Validated hit | 393 | 398 | – | 309 to 393 | – | – | – | – | – | –
O=C(c1cccc(-c2noc(CN(CCN3CCCCC3)C(=O)c3ccccc3)n2)c1)N1CCCNCC1 [Compound 10, N-((3-(3-(1,4-diazepane-1-carbonyl)phenyl)-1,2,4-oxadiazol-5-yl)methyl)-N-(2-(piperidin-1-yl)ethyl)benzamide] | – | < 1000 | 60 | 63.1 | Validated hit | 181 | 200 | – | 60 to 181 | – | – | – | – | – | –
O=C(NCC(c1ccsc1)N1CCCCCC1)c1ccc(C(F)(F)F)cc1 (stereo not drawn) [Compound 11, N-(2-(azepan-1-yl)-2-(thiophen-3-yl)ethyl)-4-(trifluoromethyl)benzamide] | – | < 1000 | 518 | 501 | Validated hit | 433 | 398 | – | – | – | – | – | – | – | –
COc1ccc2c(c1)C1(Nc3ccccc3-c3nc4ccccc4n31)C(=O)N2 (stereo not drawn) [Compound 12, 5'-methoxy-5H-spiro[benzo[4,5]imidazo[1,2-c]quinazoline-6,3'-indolin]-2'-one] | – | < 1000 | 60 | 63.1 | Validated hit, CHEMBL1545915^f) | 928 | 1000 | – | – | – | – | – | – | – | –
Cc1csc(Sc2ncnc3sccc23)n1 [Compound 13, 4-((4-methylthiazol-2-yl)thio)thieno[2,3-d]pyrimidine] | – | < 1000 | 102 | 100 | Validated hit | 194 | 200 | – | 102 to 194 | – | – | – | – | – | –
